The values that follow come from US20220364181A1, “METHOD AND A KIT FOR PREDICTING THE SUSCEPTIBILITY TO STIMULATOR OF INTERFERON GENES (STING) AGONISTS IN A CANCER PATIENT” (China Medical University, priority 2021, published 2022).

Assay [1] has as its system MC38 cell line. Kind of assay: In vitro assay for susceptibility to STING agonists, ELISA of interferon β, MC38. It is filed as cell-based, mouse. The note with it: 100 μg/mL STING agonist, 24 hours. As to the method:
(§1) Two cancer cell lines, the mouse mammary carcinoma cell line EMT6 and the mouse colon adenocarcinoma cell line MC38, were used in the present invention as the models of cell assays.
(§2) These two cancer cell lines were divided into two groups, one group was treated with cell culture medium, and named as MTAP (+); the other group was treated with siRNA of the S-methyl-5′-thioadenosine phosphorylase (MTAP) for gene knock-out, and named as MTAP(−).
In the present invention, two cancer cell lines (EMT6 cell line and MC38 cell line) of MTAP (+) and MTAP (−) were stimulated with STING agonists, and then the expression level of Type I Interferon was measured to determine the activity of the STING agonists.
The STING agonists used in the present invention included MIW815 and E7766, and two cells were divided into six groups, respectively, the MTAP(+) Control Group, the MTAP(−) Control Group, MTAP(+) MIW815 Group, MTAP(+) E7766 Group, MTAP(−) MIW815 Group and MTAP(−) E7766 Group.
In this assay, after culturing the EMT6 cell line and the MC38 cell line for 12 hours, the medium of the cells in the MTAP(+) STING Group and the MTAP(−) STING Group were replaced with a medium containing 100 μg/mL of STING agonists, and then subjected to stimulation for 24 hours.
(§3) The cells were harvested, and a portion of the cells was used for enzyme-linked immunosorbent assay (ELISA) to detect the expression level of interferon β (IFN β); the other portion was used for extraction of mRNA with TRizol, and then real-time quantitative reverse transcription polymerase chain reaction (RT-qPCR) was used to amplify its DNA fragments for detecting the gene expression levels of the interferon beta gene (IFNb1) and interferon-stimulated genes MX1 and ISG15.
On the technique in general: An ELISA detects its analyte on a solid surface through an enzyme-linked reagent.

For assay [2], the system named is EMT6 cell line. Kind of assay: In vitro assay for susceptibility to STING agonists, ELISA of interferon β, EMT6. As to conditions: EMT6 MTAP(−) cells compared with MTAP(+) cells, 100 μg/mL STING agonist, 24 hours. It is filed as cell-based, mouse. As to the method:
as §1, §2
In the present invention, two cancer cell lines (EMT6 cell line and MC38 cell line) of MTAP (+) and MTAP (−) were stimulated with STING agonists, and then the expression level of Type I Interferon was measured to determine the activity of the STING agonists. […]
as §3

In assay [3] the test system is EMT6 cell lines. Kind of assay: Animal experiment, tumor size of mice inoculated with EMT6 cell lines. In kind it is in vivo. As to the method:
In the present invention, the EMT6 cell lines with expressed MTAP (MTAP(+) Group) and the EMT6 cell lines with no expressed MTAP (MTAP(−) Group) were inoculated into mice for in vivo assays of the activity of STING agonists.
In this experiment, MIW815 was selected as the STING agonist, and the mice were divided into 4 groups, 5 mice in each group, namely the MTAP(+) Control Group, the MTAP(−) Control Group, the MTAP(+) MIW815 Group and the MTAP(−) MIW815 Group.
Drugs were administered after the cancer cells grew to be more than 100 mm^3. Phosphate buffered saline solution (PBS) was given to the MTAP(+) Control Group and the MTAP(−) Control Group; and 50 μg of STING agonist MIW815 was given to the MTAP(+) MIW815 Group and the MTAP(−) MIW815 Group at Day 9, 12 and 16.

Setting [4] is: MC38 MTAP(−) cells compared with MTAP(+) cells.

As for `O=[P@]1(S)OC[C@H]2O[C@@H]3[C@H](F)[C@@H]2O[P@](=O)(S)OC[C@H]2O[C@H]([C@H](F)[C@@H]2O1)n1cnc2c(ncnc21)NC/C=C/CNc1ncnc2c1ncn23` [E7766], the “expression of interferon β (IFN β), ELISA” value in assay [1] (MC38 MTAP(+) cells) was “effectively stimulated the expression of IFN 13”; in assay [1] (setting [4]) it was “significantly lower”; in assay [2], “significantly lower”.

Regarding `Nc1ncnc2c1ncn2[C@@H]1O[C@@H]2COP(=O)([S-])O[C@@H]3[C@H](O)[C@@H](COP([O-])(=S)O[C@H]2[C@H]1O)O[C@H]3n1cnc2c(N)ncnc21.[Na+].[Na+]` (some centres unmarked) [MIW815], the tumor size result in assay [3] (EMT6 MTAP(+) tumors, 50 μg at Day 9, 12 and 16, compared with MTAP(+) Control Group (PBS)) is “significantly smaller”; in assay [3] (EMT6 MTAP(−) tumors, 50 μg at Day 9, 12 and 16, compared with MTAP(−) Control Group (PBS)) it was “not statistically different”. The “expression of interferon β (IFN β), ELISA” value in assay [1] (MC38 MTAP(+) cells) is recorded as “effectively stimulated the expression of IFN 13”; in assay [1] (setting [4]), “significantly lower”; in assay [2], “significantly lower”.
